Source: ChEMBL document CHEMBL3885861, “Open TG-GATES”

Species on record: Rattus norvegicus
Experiment: Open TG-GATES - Regimen: Single
Format: toxicity, organism-based, Sprague-Dawley
Design: regimen Single, gender Male, age 6 weeks
Conditions: in vivo, po, route gavage; for APTT / Bas / Eos / Fbg / Hb / Ht / Lym / MCH / MCHC / MCV / Mono / Neu / PT / Plat / RBC / Ret / WBC: tissue Blood; for KIDNEY_L / KIDNEY_R / KIDNEY_TOTAL: tissue Kidney; for LIVER: tissue Liver; for A/G / ALP / ALT / AST / BUN / CRE / Ca / Cl / DBIL / GLC / IP / K / LDH / Na / PL / RALB / TBIL / TC / TG / TP / gamma-GTP: tissue Plasma
[1] = 50 mg/kg, 3 h, dose level Middle
[2] = 50 mg/kg, 6 h, dose level Middle
[3] = 50 mg/kg, 9 h, dose level Middle
[4] = 50 mg/kg, 24 h, dose level Middle
[5] = 150 mg/kg, 3 h, dose level High
[6] = 150 mg/kg, 6 h, dose level High
[7] = 150 mg/kg, 9 h, dose level High
[8] = 150 mg/kg, 24 h, dose level High

S=C=Nc1cccc2ccccc12 [1-NAPHTHYLISOTHIOCYANATE]
TERMINAL_BW [1]: 223.2 g
APTT [1]: 18.3 s
Bas [1]: 0.2%
Eos [1]: 1%
Fbg [1]: 237 mg/dL
Hb [1]: 13.7 g/dL
Ht [1]: 38.1%
Lym [1]: 76.6%
MCH [1]: 21.4 pg
MCHC [1]: 35.9%
MCV [1]: 59.7 fL
Mono [1]: 2.6%
Neu [1]: 18.8%
PT [1]: 11.6 s
Plat [1]: 118.2 x10_4/uL
RBC [1]: 639.2 x10_4/ul
Ret [1]: 8%
WBC [1]: 87.7 x10_2/uL
KIDNEY_L [1]: 0.9 g
KIDNEY_R [1]: 1 g
KIDNEY_TOTAL [1]: 1.9 g
LIVER [1]: 9.8 g
A/G [1]: 1.7
ALP [1]: 1022.2 IU/L
ALT [1]: 45 IU/L
AST [1]: 80.2 IU/L
BUN [1]: 9.6 mg/dL
CRE [1]: 0.4 mg/dL
Ca [1]: 10.8 mg/dL
Cl [1]: 102.8 meq/L
DBIL [1]: 0.1 mg/dL
GLC [1]: 240.6 mg/dL
IP [1]: 10.1 mg/dL
K [1]: 3.9 meq/L
LDH [1]: 179.8 IU/L
Na [1]: 141.4 meq/L
PL [1]: 154.2 mg/dL
RALB [1]: 3.6 g/dL
TBIL [1]: 0.1 mg/dL
TC [1]: 85.2 mg/dL
TG [1]: 77.4 mg/dL
TP [1]: 5.7 g/dL
gamma-GTP [1]: 0.8 IU/L
TERMINAL_BW [2]: 220.8 g
APTT [2]: 19.2 s
Bas [2]: 0%
Eos [2]: 0.4%
Fbg [2]: 239.8 mg/dL
Hb [2]: 13.9 g/dL
Ht [2]: 38.9%
Lym [2]: 79.2%
MCH [2]: 21.3 pg
MCHC [2]: 35.6%
MCV [2]: 59.8 fL
Mono [2]: 2.2%
Neu [2]: 17%
PT [2]: 12 s
Plat [2]: 126.8 x10_4/uL
RBC [2]: 651.4 x10_4/ul
Ret [2]: 7%
WBC [2]: 80.1 x10_2/uL
KIDNEY_L [2]: 1 g
KIDNEY_R [2]: 1 g
KIDNEY_TOTAL [2]: 1.9 g
LIVER [2]: 9.3 g
A/G [2]: 1.5
ALP [2]: 936.2 IU/L
ALT [2]: 36.6 IU/L
AST [2]: 72.8 IU/L
BUN [2]: 8.6 mg/dL
CRE [2]: 0.4 mg/dL
Ca [2]: 10.6 mg/dL
Cl [2]: 101.8 meq/L
DBIL [2]: 0.2 mg/dL
GLC [2]: 321.6 mg/dL
IP [2]: 10.2 mg/dL
K [2]: 4.2 meq/L
LDH [2]: 208 IU/L
Na [2]: 140.2 meq/L
PL [2]: 153.8 mg/dL
RALB [2]: 3.5 g/dL
TBIL [2]: 0.2 mg/dL
TC [2]: 84.6 mg/dL
TG [2]: 69.8 mg/dL
TP [2]: 5.8 g/dL
gamma-GTP [2]: 1 IU/L
TERMINAL_BW [3]: 214.5 g
APTT [3]: 17.9 s
Bas [3]: 0%
Eos [3]: 0.6%
Fbg [3]: 254 mg/dL
Hb [3]: 13.7 g/dL
Ht [3]: 38.2%
Lym [3]: 76.8%
MCH [3]: 22.3 pg
MCHC [3]: 35.9%
MCV [3]: 62 fL
Mono [3]: 2.2%
Neu [3]: 19.2%
PT [3]: 12 s
Plat [3]: 133.4 x10_4/uL
RBC [3]: 615.6 x10_4/ul
Ret [3]: 7.2%
WBC [3]: 80 x10_2/uL
KIDNEY_L [3]: 0.9 g
KIDNEY_R [3]: 0.9 g
KIDNEY_TOTAL [3]: 1.8 g
LIVER [3]: 8.8 g
A/G [3]: 1.6
ALP [3]: 826 IU/L
ALT [3]: 34.2 IU/L
AST [3]: 60 IU/L
BUN [3]: 10 mg/dL
CRE [3]: 0.4 mg/dL
Ca [3]: 10.7 mg/dL
Cl [3]: 102 meq/L
DBIL [3]: 0.2 mg/dL
GLC [3]: 321.8 mg/dL
IP [3]: 10 mg/dL
K [3]: 4.3 meq/L
LDH [3]: 150.4 IU/L
Na [3]: 141.2 meq/L
PL [3]: 147.8 mg/dL
RALB [3]: 3.5 g/dL
TBIL [3]: 0.2 mg/dL
TC [3]: 79.8 mg/dL
TG [3]: 72 mg/dL
TP [3]: 5.8 g/dL
gamma-GTP [3]: 1.2 IU/L
TERMINAL_BW [4]: 214.8 g
APTT [4]: 19.7 s
Bas [4]: 0.6%
Eos [4]: 0.4%
Fbg [4]: 357 mg/dL
Hb [4]: 14.3 g/dL
Ht [4]: 37.9%
Lym [4]: 48%
MCH [4]: 22.4 pg
MCHC [4]: 37.7%
MCV [4]: 59.2 fL
Mono [4]: 4.6%
Neu [4]: 44.6%
PT [4]: 12.2 s
Plat [4]: 131.9 x10_4/uL
RBC [4]: 639.6 x10_4/ul
Ret [4]: 6%
WBC [4]: 118.9 x10_2/uL
KIDNEY_L [4]: 1 g
KIDNEY_R [4]: 1 g
KIDNEY_TOTAL [4]: 2 g
LIVER [4]: 9.2 g
A/G [4]: 1.3
ALP [4]: 1257.2 IU/L
ALT [4]: 153.8 IU/L
AST [4]: 366.6 IU/L
BUN [4]: 10.4 mg/dL
CRE [4]: 0.4 mg/dL
Ca [4]: 10.4 mg/dL
Cl [4]: 98 meq/L
DBIL [4]: 0.9 mg/dL
GLC [4]: 177.6 mg/dL
IP [4]: 8.6 mg/dL
K [4]: 3.5 meq/L
LDH [4]: 617.6 IU/L
Na [4]: 141.4 meq/L
PL [4]: 218.2 mg/dL
RALB [4]: 3.2 g/dL
TBIL [4]: 1.1 mg/dL
TC [4]: 107 mg/dL
TG [4]: 64.8 mg/dL
TP [4]: 5.7 g/dL
gamma-GTP [4]: 6.2 IU/L
TERMINAL_BW [5]: 222.9 g
APTT [5]: 17.4 s
Bas [5]: 0.2%
Eos [5]: 0.8%
Fbg [5]: 243 mg/dL
Hb [5]: 13.9 g/dL
Ht [5]: 38.6%
Lym [5]: 77.8%
MCH [5]: 22.3 pg
MCHC [5]: 36%
MCV [5]: 61.8 fL
Mono [5]: 2.4%
Neu [5]: 18.2%
PT [5]: 11.8 s
Plat [5]: 124.6 x10_4/uL
RBC [5]: 626.2 x10_4/ul
Ret [5]: 8.3%
WBC [5]: 70.9 x10_2/uL
KIDNEY_L [5]: 0.9 g
KIDNEY_R [5]: 0.9 g
KIDNEY_TOTAL [5]: 1.9 g
LIVER [5]: 9.6 g
A/G [5]: 1.6
ALP [5]: 1056 IU/L
ALT [5]: 43 IU/L
AST [5]: 69.6 IU/L
BUN [5]: 9.2 mg/dL
CRE [5]: 0.4 mg/dL
Ca [5]: 10.9 mg/dL
Cl [5]: 103 meq/L
DBIL [5]: 0.2 mg/dL
GLC [5]: 314.6 mg/dL
IP [5]: 11.1 mg/dL
K [5]: 3.9 meq/L
LDH [5]: 205.6 IU/L
Na [5]: 141.4 meq/L
PL [5]: 142.2 mg/dL
RALB [5]: 3.5 g/dL
TBIL [5]: 0.2 mg/dL
TC [5]: 78.6 mg/dL
TG [5]: 77.6 mg/dL
TP [5]: 5.7 g/dL
gamma-GTP [5]: 1 IU/L
TERMINAL_BW [6]: 220.5 g
APTT [6]: 19.3 s
Bas [6]: 0.4%
Eos [6]: 0.6%
Fbg [6]: 247.2 mg/dL
Hb [6]: 14.3 g/dL
Ht [6]: 40.2%
Lym [6]: 80.6%
MCH [6]: 21.5 pg
MCHC [6]: 35.6%
MCV [6]: 60.3 fL
Mono [6]: 2.4%
Neu [6]: 15.4%
PT [6]: 12.1 s
Plat [6]: 127.2 x10_4/uL
RBC [6]: 668 x10_4/ul
Ret [6]: 7.4%
WBC [6]: 75.2 x10_2/uL
KIDNEY_L [6]: 0.9 g
KIDNEY_R [6]: 0.9 g
KIDNEY_TOTAL [6]: 1.9 g
LIVER [6]: 9 g
A/G [6]: 1.5
ALP [6]: 846.6 IU/L
ALT [6]: 40.4 IU/L
AST [6]: 71.4 IU/L
BUN [6]: 10 mg/dL
CRE [6]: 0.4 mg/dL
Ca [6]: 10.7 mg/dL
Cl [6]: 101.2 meq/L
DBIL [6]: 0.3 mg/dL
GLC [6]: 371.2 mg/dL
IP [6]: 10.4 mg/dL
K [6]: 4.4 meq/L
LDH [6]: 188.4 IU/L
Na [6]: 141 meq/L
PL [6]: 149.2 mg/dL
RALB [6]: 3.6 g/dL
TBIL [6]: 0.2 mg/dL
TC [6]: 85 mg/dL
TG [6]: 55.4 mg/dL
TP [6]: 5.9 g/dL
gamma-GTP [6]: 1.2 IU/L
TERMINAL_BW [7]: 219.4 g
APTT [7]: 19.1 s
Bas [7]: 0.4%
Eos [7]: 0.6%
Fbg [7]: 251.8 mg/dL
Hb [7]: 14.3 g/dL
Ht [7]: 40.2%
Lym [7]: 77.6%
MCH [7]: 21.9 pg
MCHC [7]: 35.7%
MCV [7]: 61.4 fL
Mono [7]: 3%
Neu [7]: 18.4%
PT [7]: 12.1 s
Plat [7]: 126.7 x10_4/uL
RBC [7]: 655.2 x10_4/ul
Ret [7]: 7.1%
WBC [7]: 81.9 x10_2/uL
KIDNEY_L [7]: 1 g
KIDNEY_R [7]: 0.9 g
KIDNEY_TOTAL [7]: 1.9 g
LIVER [7]: 8.7 g
A/G [7]: 1.5
ALP [7]: 968.6 IU/L
ALT [7]: 40 IU/L
AST [7]: 63.8 IU/L
BUN [7]: 10.2 mg/dL
CRE [7]: 0.4 mg/dL
Ca [7]: 10.8 mg/dL
Cl [7]: 101.8 meq/L
DBIL [7]: 0.3 mg/dL
GLC [7]: 352.4 mg/dL
IP [7]: 10.4 mg/dL
K [7]: 4.5 meq/L
LDH [7]: 186.8 IU/L
Na [7]: 140.8 meq/L
PL [7]: 151.4 mg/dL
RALB [7]: 3.6 g/dL
TBIL [7]: 0.2 mg/dL
TC [7]: 83.4 mg/dL
TG [7]: 35.6 mg/dL
TP [7]: 5.9 g/dL
gamma-GTP [7]: 1 IU/L
TERMINAL_BW [8]: 214.2 g
APTT [8]: 21.2 s
Bas [8]: 0.6%
Eos [8]: 0.2%
Fbg [8]: 392.4 mg/dL
Hb [8]: 14.7 g/dL
Ht [8]: 38.5%
Lym [8]: 43%
MCH [8]: 21.6 pg
MCHC [8]: 38.2%
MCV [8]: 56.4 fL
Mono [8]: 5.6%
Neu [8]: 49.6%
PT [8]: 12.8 s
Plat [8]: 145.8 x10_4/uL
RBC [8]: 682.8 x10_4/ul
Ret [8]: 6%
WBC [8]: 79 x10_2/uL
KIDNEY_L [8]: 0.9 g
KIDNEY_R [8]: 0.9 g
KIDNEY_TOTAL [8]: 1.9 g
LIVER [8]: 8.6 g
A/G [8]: 1.3
ALP [8]: 1505.2 IU/L
ALT [8]: 131.6 IU/L
AST [8]: 349.2 IU/L
BUN [8]: 11.2 mg/dL
CRE [8]: 0.5 mg/dL
Ca [8]: 10.4 mg/dL
Cl [8]: 96.8 meq/L
DBIL [8]: 1.5 mg/dL
GLC [8]: 190.8 mg/dL
IP [8]: 9.2 mg/dL
K [8]: 3.8 meq/L
LDH [8]: 601.8 IU/L
Na [8]: 142.2 meq/L
PL [8]: 268 mg/dL
RALB [8]: 3.3 g/dL
TBIL [8]: 1.7 mg/dL
TC [8]: 129.6 mg/dL
TG [8]: 64.2 mg/dL
TP [8]: 5.8 g/dL
gamma-GTP [8]: 7.4 IU/L
